Entries after “also recorded” stand apart in the source; their conditions may differ.
What was measured:
[1] = system: PC-3 (human prostate cancer cells); experiment: MTT assay for cell viability, PC-3; type: cell-based; conditions: 48 h
Procedure: (§1) The human cancer cell lines e.g. HepG2 (hepatocellular carcinoma, ATCC® HB-8065™), PC-3 (human prostate cancer cells, ATCC® CRL-1435™), MCF-7 (breast adenocarcinoma, ATCC® […]), and mouse embryo fibroblasts (NIH/3T3, ATCC® CRL-1658™), used in the present study were obtained from the ATCC (American Type Culture Collection, USA and maintained in RPMI 1640 (Roswell Park Memorial Institute, Merck) with 10% FBS (Merck), supplemented with 1% antibiotic and antimycotic solution (Gibco, USA) at 37° C. in a humidified incubator with 5% CO2. All stock solutions of the compounds were prepared in cell culture grade DMSO (dimethyl sulfoxide) and stored at −20° C. Compounds were diluted in culture media prior to use in experiments. Annexin V-FITC apoptosis detection kits were purchased from Calbiochem. MTT dye was procured from Sigma-Aldrich. All the flow cytometry experiments were performed using a FACScan (Becton Dickinson, Mountain View, Calif.) flow cytometer, equipped with a single 488 nm argon laser.
(§2) Cell viability was assessed by MTT assay, which is based on the reduction of MTT by mitochondrial dehydrogenases of viable cells to form a purple formazan product. Briefly, cells (5-6×10^3/well) were plated in 96 well plates. After incubating overnight, the cells were treated with […] different concentrations (100, 50, 20, 10, 5, 2.5, 1.25 μM) in triplicates with the cationic lipidated cordiarimide and intermediates for 48 h. Subsequently, 10 μL of MTT (10 mg/mL) was added to each well and incubated for 3 h. The MTT formazan formed by viable cells was dissolved in 100 μL of DMSO and shaken for 10 min. The absorbance was measured on an ELISA reader. Each test was repeated at least three times. The concentration of the compound which gives the 50% growth inhibition value corresponding to IC50, was calculated using GraphPad prism 5 software. In the present invention we have screened 26 lipidated cordiarimides and the results are described in table 1.

[2] = system: HepG2 (hepatocellular carcinoma); experiment: MTT assay for cell viability, HepG2; type: cell-based, human
Procedure: as §1, §2

ligase IV = ligase IV (Homo sapiens, UniProt P49917); experiment: Ligation assay, DNA ligase IV; type: biochemical
ligase IV, sequence (P49917 whole entry): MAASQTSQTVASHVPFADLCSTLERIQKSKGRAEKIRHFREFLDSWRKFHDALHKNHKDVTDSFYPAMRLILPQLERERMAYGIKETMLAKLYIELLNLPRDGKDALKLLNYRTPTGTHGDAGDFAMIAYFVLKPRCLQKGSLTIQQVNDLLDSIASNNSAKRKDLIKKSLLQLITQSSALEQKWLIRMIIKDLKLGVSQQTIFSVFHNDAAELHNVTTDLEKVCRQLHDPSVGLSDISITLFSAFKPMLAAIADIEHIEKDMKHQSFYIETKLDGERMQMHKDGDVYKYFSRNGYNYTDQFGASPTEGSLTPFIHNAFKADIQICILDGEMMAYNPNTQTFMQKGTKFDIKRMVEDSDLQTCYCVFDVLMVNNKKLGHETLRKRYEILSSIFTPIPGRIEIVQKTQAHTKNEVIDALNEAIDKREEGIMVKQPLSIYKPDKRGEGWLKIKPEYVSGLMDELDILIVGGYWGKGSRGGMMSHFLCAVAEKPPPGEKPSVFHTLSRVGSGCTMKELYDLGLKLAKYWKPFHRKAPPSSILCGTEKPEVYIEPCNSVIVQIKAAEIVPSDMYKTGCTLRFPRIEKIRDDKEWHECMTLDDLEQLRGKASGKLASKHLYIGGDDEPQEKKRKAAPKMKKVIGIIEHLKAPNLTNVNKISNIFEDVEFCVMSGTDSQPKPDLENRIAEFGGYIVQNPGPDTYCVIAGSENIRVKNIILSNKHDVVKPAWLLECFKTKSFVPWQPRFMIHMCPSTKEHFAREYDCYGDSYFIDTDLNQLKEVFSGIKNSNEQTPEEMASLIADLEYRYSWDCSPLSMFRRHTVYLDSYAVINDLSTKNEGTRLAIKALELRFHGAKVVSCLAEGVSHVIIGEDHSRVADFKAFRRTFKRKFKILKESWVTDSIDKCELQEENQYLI
ligase IV, sequence (Q13426 whole entry partner): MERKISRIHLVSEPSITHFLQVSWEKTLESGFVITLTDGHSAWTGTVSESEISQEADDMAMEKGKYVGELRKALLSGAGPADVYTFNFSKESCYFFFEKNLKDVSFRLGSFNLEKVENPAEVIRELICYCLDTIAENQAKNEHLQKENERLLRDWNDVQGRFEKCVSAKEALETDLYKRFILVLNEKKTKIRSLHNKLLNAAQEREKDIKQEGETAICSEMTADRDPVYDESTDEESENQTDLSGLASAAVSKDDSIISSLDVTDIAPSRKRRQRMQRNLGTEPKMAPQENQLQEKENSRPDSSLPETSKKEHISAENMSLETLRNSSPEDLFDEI
From the text: (§3) The ligation assay was done strictly following the assay protocol described in Xi Chen et. al, Cancer Res 2008; 68(9):3169-3177. The DNA molecules 52 mer (5′-3′), 28-mer (5′-3′) and 34-mer (5′-3′) were used to construct a double stranded nicked substrate for the ligase enzyme (FIG. 4). The 34-mer oligo was labelled with 32P-AMP to form a substrate for ligase and to form a ligase-AMP intermediate. During ligation, the ligase would transfer the AMP to the nick forming a phosphodiester bond and seal the nick. The ligated DNA molecule would be larger in size and run higher up on a 7% Urea-containing denaturing acrylamide gel. If an inhibitor is added to the reaction mixture prior to the addition of ligase, this would lead to an inhibition of ligation and a corresponding loss of labelled ligated product in the gel. We would then be able to calculate the percentage of inhibition of ligation by estimating the amount of ligated product in the lane with no inhibitor and comparing it with the lanes containing different inhibitor molecules or with the same inhibitor molecule at different concentrations.

human ligase I = human ligase I (Homo sapiens, UniProt P18858); experiment: Ligation assay, DNA ligase I; type: biochemical
human ligase I, sequence (P18858 whole entry): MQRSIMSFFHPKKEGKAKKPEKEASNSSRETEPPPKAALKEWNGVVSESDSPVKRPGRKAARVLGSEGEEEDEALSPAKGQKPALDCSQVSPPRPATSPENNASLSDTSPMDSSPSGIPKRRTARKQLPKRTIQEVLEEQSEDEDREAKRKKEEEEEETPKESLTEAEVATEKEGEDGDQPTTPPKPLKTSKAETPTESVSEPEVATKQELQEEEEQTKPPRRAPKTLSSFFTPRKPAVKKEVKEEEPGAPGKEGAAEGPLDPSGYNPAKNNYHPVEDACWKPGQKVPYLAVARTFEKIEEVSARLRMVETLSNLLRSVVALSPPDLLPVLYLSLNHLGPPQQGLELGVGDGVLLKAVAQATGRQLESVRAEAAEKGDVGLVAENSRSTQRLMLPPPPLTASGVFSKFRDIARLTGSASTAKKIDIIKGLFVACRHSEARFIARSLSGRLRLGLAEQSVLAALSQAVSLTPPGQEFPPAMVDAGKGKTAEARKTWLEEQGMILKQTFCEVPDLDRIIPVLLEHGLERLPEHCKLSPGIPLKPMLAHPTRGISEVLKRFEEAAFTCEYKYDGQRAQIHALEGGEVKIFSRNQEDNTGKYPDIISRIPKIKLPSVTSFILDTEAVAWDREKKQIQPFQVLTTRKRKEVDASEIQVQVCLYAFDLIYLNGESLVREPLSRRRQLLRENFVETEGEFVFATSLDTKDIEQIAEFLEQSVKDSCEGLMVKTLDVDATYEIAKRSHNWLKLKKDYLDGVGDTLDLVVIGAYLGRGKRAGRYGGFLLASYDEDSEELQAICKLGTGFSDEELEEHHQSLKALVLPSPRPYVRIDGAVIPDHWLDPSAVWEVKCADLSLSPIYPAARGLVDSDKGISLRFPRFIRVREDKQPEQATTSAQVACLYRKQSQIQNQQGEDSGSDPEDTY
From the text: as §3

T4 DNA ligase = target: T1, T4 DNA ligase (Enterobacteria phage T4, UniProt P00970); experiment: Ligation assay, T4 DNA ligase control; type: biochemical; conditions: 5 μM
T1 sequence (P00970 1-487): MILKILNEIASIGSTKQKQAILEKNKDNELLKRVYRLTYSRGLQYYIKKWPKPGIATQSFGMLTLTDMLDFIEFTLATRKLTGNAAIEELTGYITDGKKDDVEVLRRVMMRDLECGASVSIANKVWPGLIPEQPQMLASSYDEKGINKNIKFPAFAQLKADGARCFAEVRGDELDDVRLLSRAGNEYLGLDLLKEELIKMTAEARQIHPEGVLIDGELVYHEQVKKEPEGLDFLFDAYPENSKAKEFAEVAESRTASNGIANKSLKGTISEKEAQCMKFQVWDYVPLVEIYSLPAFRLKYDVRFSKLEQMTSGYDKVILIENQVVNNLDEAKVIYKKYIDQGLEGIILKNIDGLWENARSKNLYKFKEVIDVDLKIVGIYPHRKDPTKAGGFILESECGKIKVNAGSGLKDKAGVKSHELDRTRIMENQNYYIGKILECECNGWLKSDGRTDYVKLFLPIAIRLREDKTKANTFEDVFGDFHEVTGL
From the text: as §3

[3] = system: mouse embryo fibroblasts (NIH/3T3); experiment: MTT assay for cell viability, NIH/3T3; type: cell-based; conditions: NIH3T3, 48 h
Procedure: as §1, §2

Structure (SMILES): CCCCCCCCCCCC[N+](C)(CCCCCCCCCCCC)CC(=O)NC1CCC(=O)N(CC(=O)c2ccccc2)C1=O (centres unmarked) [Compound 8k, {[2,6-Dioxo-1-(2-oxo-2-phenyl-ethyl)-piperidin-3-ylcarbamoyl]-methyl}-Didodecyl-methyl-ammonium iodide]
- IC50 [1]: 5.61 µM
- IC50 ([1]; Homo sapiens): 5.6 µM
- IC50 ([2]; 48 h): 1.87 µM
- IC50 ([2]; Homo sapiens, HepG2, 48 h): 1.8 µM
- inhibition of ligase IV (ligase IV; 5 μM): No appreciable inhibition
- effect on ligase IV activity (ligase IV; even at higher concentrations): no effect
- inhibition at 1 µM (human ligase I; 1 μM): ~50%
- inhibition of ligase I activity (human ligase I; 10 μM): complete inhibition
- DNA ligase I / ligation inhibition (in words) (human ligase I; screening, FIG. 4 and FIG. 7): most prolific inhibitor of ligation; also recorded: inhibition of DNA ligase I activity; also recorded: showed inhibition of DNA ligation
- inhibition of T4 ligase (T4 DNA ligase): No appreciable inhibition
- IC50 [3]: > 20 µM

Source: patent publication US10266564B2, “Cationic lipid cordiarimide hybrid compounds and a process for preparation thereof” (COUNCIL OF SCIENTIFIC & INDUSTRIAL RESEARCH, priority 2014, dated 2019)
